The source made the active and inactive calls.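 Rule for the calls: active = Fitted curve of melting temperature shift crosses the 1.0 threshold at or below the sample's highest valid tested concentration; inconclusive = Flat fit with activity 30 to 70, or invalid fit; inactive = Opposite direction, flat within 30, or no crossing.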
Biological target: Fibroblast growth factor 22 (Homo sapiens) (UniProt Q9HCT0)
Experiment: binders of human FGF22 protein, dose response, FGF22 synaptogenesis inhibitor project, biophysical, thermal shift, cherry-pick (AID 687022)
Conditions: recombinant FGF22 thermal shift, SYPRO orange melting

Fibroblast growth factor 22 (Homo sapiens), sequence (Q9HCT0 whole entry, looked up): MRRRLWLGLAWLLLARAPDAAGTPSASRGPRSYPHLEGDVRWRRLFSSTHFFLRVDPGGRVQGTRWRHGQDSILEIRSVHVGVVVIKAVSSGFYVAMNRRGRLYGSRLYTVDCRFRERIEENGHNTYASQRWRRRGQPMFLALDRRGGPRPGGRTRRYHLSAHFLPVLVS

With `Cc1cc(C)cc(NC(=O)CN2C(=O)NC(Cc3c[nH]c4ccccc34)C2=O)c1` (stereo not given) the AbsAC1 (concentration giving Tm-shift threshold 1.0) was 13 µM.

`O=C(N/N=C\c1c[nH]c2ccccc12)c1ccc(O)cc1` gave an AbsAC1 (concentration giving Tm-shift threshold 1.0) of 1.85 µM.

With `O=C(C[C@H]1CC[C@@H]2[C@H](COC[C@H](O)CN2S(=O)(=O)c2cccc(F)c2)O1)Nc1ccccc1` the AbsAC1 (concentration giving Tm-shift threshold 1.0) was 3.48 µM.

`O=C(N/N=C/c1c[nH]c2ccc(Br)cc12)c1ccc2c(c1)OCO2` showed an AbsAC1 (concentration giving Tm-shift threshold 1.0) of 14.3 µM.

`COc1ccc(-c2cn(CC[C@@H]3CC[C@@H](NC(=O)Nc4ccc(F)cc4)[C@H](CO)O3)nn2)cc1` gave an AbsAC1 (concentration giving Tm-shift threshold 1.0) of 12.8 µM.

With `Cc1ccsc1C(=O)NNC(=O)c1ccc(NS(=O)(=O)c2cccs2)cc1` the AbsAC1 (concentration giving Tm-shift threshold 1.0) was 11.6 µM.

Compound `O=C(N/N=C/c1c[nH]c2ccccc12)c1cccc(O)c1` has an AbsAC1 (concentration giving Tm-shift threshold 1.0) of 2.9 µM.

Work on `O=C(Cc1c[nH]c2ccccc12)N1CCN(S(=O)(=O)c2cccc(Cl)c2Cl)CC1` yielded an AbsAC1 (concentration giving Tm-shift threshold 1.0) of 13.4 µM.

In the case of `CN1C(=O)c2cc(NC(=O)c3cccc(F)c3)ccc2OC[C@@H]2O[C@H](CC(=O)N3CCc4ccccc4C3)CC[C@@H]21`, the AbsAC1 (concentration giving Tm-shift threshold 1.0) is reported as 17.2 µM.

`O=C(Nc1ccc(C(=O)O)cc1)Nc1ccc([N+](=O)[O-])cc1` showed an AbsAC1 (concentration giving Tm-shift threshold 1.0) of 5.57 µM.

`COc1ccc(OC)c(Nc2ccc(Nc3cc(OC)ccc3OC)nn2)c1` showed an AbsAC1 (concentration giving Tm-shift threshold 1.0) of 8.4 µM.

With `Nc1ccc(C(=O)N/N=C/c2c[nH]c3ccccc23)cc1` the AbsAC1 (concentration giving Tm-shift threshold 1.0) was 3.41 µM.

`CC(=O)c1ccc(NC(=O)Nc2cccnc2)cc1` was tested, and the AbsAC1 (concentration giving Tm-shift threshold 1.0) was 7.05 µM.

Work on `O=C(Nc1ccc(S(=O)(=O)N2CCCC2)cc1)c1cccs1` yielded an AbsAC1 (concentration giving Tm-shift threshold 1.0) of 9.33 µM.

Compound `CCN1C/C(=C/c2cccs2)c2nc3ccccc3c(C(=O)O)c2C1` has an AbsAC1 (concentration giving Tm-shift threshold 1.0) of 3.02 µM.

`Cc1nc2ccccc2c2oc(C(=O)NCc3ccc4c(c3)OCO4)cc12` showed an AbsAC1 (concentration giving Tm-shift threshold 1.0) of 2.57 µM.

In the case of `CN1C(=O)c2cc(NC(=O)c3cccc(F)c3)ccc2OC[C@@H]2O[C@H](CC(=O)NCC3CCCCC3)CC[C@@H]21`, the AbsAC1 (concentration giving Tm-shift threshold 1.0) is reported as 16.8 µM.

Compound `O=C(C[C@H]1CC[C@@H]2[C@H](COC[C@H](O)CN2S(=O)(=O)c2cccc(Cl)c2)O1)Nc1ccccc1` has an AbsAC1 (concentration giving Tm-shift threshold 1.0) of 1.93 µM.

`CC(C)CC(=O)Nc1ccc(C(=O)CN2C(=O)NC3(CCOc4ccccc43)C2=O)cc1` (stereo not given) showed an AbsAC1 (concentration giving Tm-shift threshold 1.0) of 6.42 µM.

With `Cc1ccc(NC(=O)c2ccc(OCc3c(C)noc3C)cc2)c(C)c1` the AbsAC1 (concentration giving Tm-shift threshold 1.0) was 2.58 µM.

`CCN1C(=O)C(CC(=O)Nc2ccc(OC)cc2)N(CCc2ccc(OC)cc2)C1=S` (stereo not given) gave an AbsAC1 (concentration giving Tm-shift threshold 1.0) of 6.95 µM.

`O=c1c(O)c(-c2cc(O)c(O)c(O)c2)oc2cc(O)cc(O)c12` showed an AbsAC1 (concentration giving Tm-shift threshold 1.0) of 4.37 µM.

With `CCCNC(=O)COC(=O)c1ccccc1C(=O)N(C)C1CCCCC1` the AbsAC1 (concentration giving Tm-shift threshold 1.0) was 3.78 µM.

`CC1(C(=O)NS(=O)(=O)c2ccc(Cl)cc2)CCN1C(=O)Cc1ccc(Cl)cc1Cl` (stereo not given) was tested, and the AbsAC1 (concentration giving Tm-shift threshold 1.0) was > 10 µM (inactive).

Compound `COc1ccc(/C=N/NC(=O)c2ccc(NS(=O)(=O)c3cccs3)cc2)cc1` has an AbsAC1 (concentration giving Tm-shift threshold 1.0) of 7.28 µM.

Work on `O=C(NCC[C@@H]1CC[C@H](NC(=O)c2cnccn2)[C@H](CO)O1)Nc1ccc(F)cc1` yielded an AbsAC1 (concentration giving Tm-shift threshold 1.0) of 41 µM.

`N#CC(C#N)=C1NC(N)=C(C#N)C(c2ccccc2)=C1C#N` gave an AbsAC1 (concentration giving Tm-shift threshold 1.0) of 4.02 µM.

With `O=C(N/N=C/c1cccc(Oc2ccccc2)c1)c1cccc(O)c1` the AbsAC1 (concentration giving Tm-shift threshold 1.0) was 3.12 µM.

`Cc1ccccc1S(=O)(=O)NCC[C@@H]1CC[C@@H](NC(=O)Nc2cccc(Cl)c2)[C@@H](CO)O1` showed an AbsAC1 (concentration giving Tm-shift threshold 1.0) of 8.07 µM.

`O=C(O)/C=C/c1cccc(NC(=O)Nc2ccc([N+](=O)[O-])cc2)c1` was tested, and the AbsAC1 (concentration giving Tm-shift threshold 1.0) was 4.49 µM.

From PubChem BioAssay AID687022 (Broad Institute, 2013)
